Test results reported in article PMC3712822 (Pharmacotherapy, 2011).
Read-outs that look alike come from different tables or passages of the source. Values belong to the molecule of their own block, whether it stands above or below them.

Legend:
[1] = patients taking atorvastatin; cited from earlier work
[2] = system: human myocytes; conditions: in vitro; cited from earlier work
[3] = system: CYP3A; conditions: cited from earlier work
[4] = for AUC(0-inf) / half-life / Tmax / Cmax: human, plasma, oral; for AUC(0-inf): AUC0–∞; for AUC(0-inf) / Tmax / Cmax: median (IQR); for half-life: harmonic mean ± SD; for Cmax: atorvastatin + clarithromycin 500 mg twice/day
[5] = Plasma clarithromycin partial AUC in the atorvastatin plus clarithromycin phase; type: in vivo; conditions: human, oral, 500 mg, Partial AUC of clarithromycin (hrs 2–10), clarithromycin 500 mg twice/day, day 4, mean ± SD
[6] = system: CYP3A; conditions: classification by the United States Food and Drug Administration; cited from earlier work
[7] = 20 mg, CYP3A5 expressors (n=10), atorvastatin only
[8] = 20 mg, CYP3A5 nonexpressors (n=13), atorvastatin only
[9] = CYP3A5 expressors (n=10), atorvastatin + clarithromycin
[10] = CYP3A5 nonexpressors (n=13), atorvastatin + clarithromycin

Structure (SMILES): CC(C)c1c(C(=O)Nc2ccccc2)c(-c2ccccc2)c(-c2ccc(F)cc2)n1CC[C@@H](O)C[C@@H](O)CC(=O)O [atorvastatin acid, atorvastatin]
Patients experiencing muscle-related adverse effects [1]: 3–8%

AUC0–∞ higher in nonexpressors than in expressors ([4]; atorvastatin-only phase, p=0.038): 36%
AUC(0-inf) [4, 7]: 0.0349 µg·h/mL
AUC(0-inf) [4, 8]: 0.0476 µg·h/mL
half-life [4, 7]: 10.9 ± 4.5 h
half-life [4, 8]: 13.6 ± 5.2 h
Tmax [4, 7]: 2 h
Tmax [4, 8]: 1 h
AUC(0-inf) [4, 9]: 0.11 µg·h/mL
AUC(0-inf) [4, 10]: 0.127 µg·h/mL
Cmax ([4]; CYP3A5 expressors (n=10)): 4.2 ng/mL
Cmax ([4]; CYP3A5 nonexpressors (n=13)): 4.2 ng/mL
half-life [4, 9]: 19.3 ± 5.4 h
half-life [4, 10]: 19.2 ± 5.2 h
Tmax [4, 9]: 5 h
Structure (SMILES): CC(C)c1c(C(=O)Nc2ccccc2)c(-c2ccccc2)c(-c2ccc(F)cc2)n1CC[C@@H]1C[C@@H](O)CC(=O)O1 [atorvastatin lactone]
Toxicity to human myocytes relative to the acid form [2]: more toxic
Affinity for CYP3A relative to atorvastatin acid [3]: higher affinity

AUC ([5]; CYP3A5 expressors): 17700 µg·h/mL
AUC ([5]; CYP3A5 nonexpressors): 21900 µg·h/mL
Structure (SMILES): CC[C@H]1OC(=O)[C@H](C)[C@@H](O[C@H]2C[C@@](C)(OC)[C@@H](O)[C@H](C)O2)[C@H](C)[C@@H](O[C@@H]2O[C@H](C)C[C@H](N(C)C)[C@H]2O)[C@](C)(OC)C[C@@H](C)C(=O)[C@H](C)[C@@H](O)[C@]1(C)O [clarithromycin]
CYP3A inhibitor classification [6]: strong CYP3A inhibitor
